The values below come from patent publication US12414991B2, “Azobenzene derivatives, process for their preparation and their use for therapeutic treatment associated with ionizing radiations” (CENTRE NATIONAL DE LA RECHERCHE SCIENTIFIQUE, priority 2019, dated 2025).

Data set [1] can be described thus: Quantification of ionizing-radiation-induced isomerization (molecular activation) by HPLC. In kind it is physicochemical. As for the experimental part: Gamma ray irradiation. Gamma irradiation was performed with a Cesium-137 source (IBL 637) providing 662 keV photons at a dose rate of approximately 1 Gy/min. Radiation doses are expressed in Gray ([…]).
Gd-containing compounds (GdAzo or GdFAzo) and control compounds (Azo or FAzo) (50 μM, 200 μL, PBS) were introduced into two 96-well microplates (10 wells for each compound). Both microplates were first irradiated under UV light (365 nm, 0.817 mW·cm^−2, 5 min). One microplate (plate 1) was then kept in the dark and used as a non-irradiated control while the second (plate 2) was irradiated with an increment of ionizing radiation doses (2 Gy, 3 Gy, 5 Gy and 10 Gy). After each irradiation, absorbance spectrophotometric and HPLC injection (method C) analyses were performed on the non-irradiated (plate 1) and irradiated (plate 2) compounds. A 26 min time lag between UV irradiation of plates 1 and 2 was used to allow analysis of the unirradiated control compounds (plate 1) at the same time as the ionizing irradiated compounds (plate 2) after UV irradiation. […] The absorbance spectra were plotted by the mean of triplicates. The relative amount of each isomer was obtained by HPLC (detection at the isosbestic point wavelength under elution conditions) and the molecular activation (%) was determined by the difference in the proportion of trans isomer in the medium (3 independent experiments).

Data set [2] in a line: Thermal relaxation of the compound. In kind it is physicochemical.
Data set [3] concerns CCRF-CEM ARAC-8C cells (Gem-resistant human acute lymphoblastic leukemia). Nature of the data set: Therapeutic effect under ionizing radiation: cell viability by trypan blue cell count. Type of data set: cell-based. On the procedure: Just before the experiment, the cells (CCRF-CEM ARAC-8C) were dispersed in PBS and transferred to a 48-well microplate (TPP cell culture microplates purchased from Thermo Fisher Scientific, France) (40,000 cells in 80 μL/well). Gem (20 μL, final concentration 0.1 μM) or PBS (20 μL) and cis-GdAzo compound (100 μL, final concentration 0 μM, 250 μM, 500 μM or 850 μM) were added just prior to gamma irradiation of the medium (2 Gy). The medium was maintained in the dark and in a humid atmosphere at 37° C. with 5% CO2 for 1 h. Next, culture medium (600 μL) was added to each well and the cells were washed by three centrifugation cycles (300 G, 5 min, 800 μL of culture medium used for each wash). The cells were finally dispersed in culture medium (600 μL) containing or not containing Gem (final concentration 0 μM or 0.1 μM) and were maintained in a humid atmosphere at 37° C. with 5% CO2 for 4 days. The number of live cells was determined by cell count in the presence of 1:1 (v/v) trypan blue (triplicate). The experiment was repeated three times independently. Cell viability was expressed as the ratio of the number of living cells after treatment to the number of living cells without any treatment (without irradiation, in the absence of Gem and cis-GdAzo). A similar procedure was used for the control experiment without irradiation except that the 48-well microplate was not irradiated with gamma rays. A similar procedure was used for the control experiment with Dotarem® (FIG. 2f) except that Dotarem® was used instead of cis-GdAzo. The cis-GdAzo compound was obtained by UV irradiation (365 nm, 0.817 mW·cm−2, 30 min) of the trans-GdAzo compound (105 μL, 500 μM, 1 mM or 1.7 mM, cis-GdAzo>85%) in a 96-well microplate.

In a further data set the test system is Cells (PANC-1). As to the kind of experiment: Confocal microscopy in the presence of ionizing radiation: cell permeabilization (propidium iodide). In kind it is cell-based, human. On the procedure:
Cells (PANC-1) were transferred to an imaging plate (Lab-Tek chamber slide system, glass, 8-well purchased from Thermo Fisher Scientific, France) 24 h before the start of the experiment, and were maintained in culture medium (10,000 cells in 200 μL/well) in a humid atmosphere at 37° C. with 5% CO2. Just before the experiment, the cell medium was replaced with PBS (100 μL) and IP (5 μL, final concentration 1 μM) was added to the medium. 15 min after the addition of PI, cis-GdAzo (100 μL, final concentration 0 μM, 250 μM, 500 μM or 850 μM) was introduced into the cell medium. A first series of images was acquired at this stage, and then the imaging plate was irradiated (gamma rays, 2 Gy). The imaging plate was then kept in the dark at 37° C. (plate warmer) and images were acquired every 5 min for 30 min and then every 10 min for 90 min. A similar procedure was used for the control experiment without irradiation except that the imaging plate was not irradiated with gamma rays. The cis-GdAzo compound was obtained by UV irradiation (365 nm, 0.817 mW·cm^−2, 30 min) of the trans-GdAzo compound (105 μL, 500 μM, 1 mM or 1.7 mM, cis-GdAzo>85%) in a 96-well microplate. […] The instrument was equipped with a laser diode at 561 nm as excitation wavelength. The red fluorescence emission was collected over a bandwidth of 598-672 nm and the transmission images were obtained with a white diode. The pinhole was set at 50 μm and the magnification lens at 1.2. The images were recorded by an e-Volve s-CMOS camera (Photometrics). Four images were recorded per well and two wells were used for each concentration of cis-GdAzo. Analysis of the 16-bit digital images was performed using ImageJ software (version 1.50i with the Adjustable Watershed plugin). The number of cells in the images acquired before irradiation was determined manually and the number of fluorescent cells in the images acquired before and after irradiation was calculated automatically using a script coded on ImageJ. Cell permeabilization was determined by the difference in the proportion of fluorescent cells before and 30 min after gamma irradiation (3 independent experiments).

With “Gadolinium 2,6-difluoro-4-(N-(1,4,7,10-tetraazacyclododecane-1,4,7-triacetic acid-10-glutaryl)-ethoxyamine)-2′,6′-difluoro-4′-butoxyazobenzene [GdFAzo]”, the “activation of the compound compared to GdAzo” value in data set [1] (in vitro experimental conditions, FIG. 1c) was “relatively low”. Further, the “activation by ionizing radiation” value in data set [1] (ionizing radiation (X-rays, gamma rays, electrons), FIGS. 1a-f) was “can also be activated”. Besides, in data set [2], the thermal relaxation entry is “slow enough”.
With `CNC[C@H](O)[C@@H](O)[C@H](O)[C@H](O)CO.O=C([O-])CN1CCN(CC(=O)[O-])CCN(CC(=O)O)CCN(CC(=O)[O-])CC1.[Gd+3]` [Dotarem®, reference compound], the “therapeutic effect under ionizing radiation” value in data set [3] (gamma irradiation (2 Gy), with or without Gem (0.1 μM), FIG. 2f) is reported as “no therapeutic effect”.
On to “Gadolinium 4-(N-(1,4,7,10-tetraazacyclododecane-1,4,7-triacetic acid-10-glutaryl)-ethoxyamine)-4′-butoxyazobenzene [GdAzo]”, for which the cell permeabilization in the data set with Cells (PANC-1) (250 μM, gamma rays at 2 Gy, 30 min after irradiation) was found to be 6.9%; in the data set on Cells (PANC-1) (250 μM, without irradiation), 1.2%; in the data set on Cells (PANC-1) (500 μM, gamma rays at 2 Gy, 30 min after irradiation) it was 8.2%; in the data set with Cells (PANC-1) (500 μM, without irradiation), 2.8%; with Cells (PANC-1) (850 μM, gamma rays at 2 Gy, 30 min after irradiation), 12.4%; in the data set with Cells (PANC-1) (850 μM, without irradiation), 7.5%. The “cell viability 4 days after treatment” value in data set [3] (250 μM, absence of gemcitabine, gamma radiation at 2 Gy) amounted to 23%; in data set [3] (250 μM, absence of gemcitabine, without irradiation), 79%; in data set [3] (250 μM, presence of gemcitabine (0.1 μM), gamma radiation at 2 Gy), 15%; in data set [3] (250 μM, presence of gemcitabine (0.1 μM), without irradiation) it was 49%; in data set [3] (500 μM, absence of gemcitabine, gamma radiation at 2 Gy), 18%; in data set [3] (500 μM, absence of gemcitabine, without irradiation) it was 42%. The “cell viability 4 days after treatment” value in data set [3] (500 μM, presence of gemcitabine (0.1 μM), gamma radiation at 2 Gy) turned out to be 9.1%; in data set [3] (500 μM, presence of gemcitabine (0.1 μM), without irradiation) it was 30%; in data set [3] (850 μM, absence of gemcitabine, gamma radiation at 2 Gy), 3.0%; in data set [3] (850 μM, absence of gemcitabine, without irradiation), 27%; in data set [3] (850 μM, presence of gemcitabine (0.1 μM), gamma radiation at 2 Gy), 1.2%; in data set [3] (850 μM, presence of gemcitabine (0.1 μM), without irradiation), 16%.
